Values quoted from earlier work in patent US7955790B2, “Skin substitutes with improved barrier function” (Stratatech Corporation, priority 2001, dated 2011).
Where two headings read alike, the source gives them in different places.

Columns and labels:
in vitro Cultures [1] = conditions: substance added to in vitro cultures
in vitro Cultures [2] = conditions: for Lipid Composition: substance added to in vitro cultures

Vitamin D
Barrier Function (in vitro Cultures [1]; listed as vitamin D): improvements in some studies

Estrogen
Barrier Function (in vitro Cultures [1]): Accelerates

EGF: epidermal growth factor added to in vitro cultures
Lipid Composition (in vitro Cultures [2]): High triglycerides

O=C1O[C@H]([C@@H](O)CO)C(O)=C1O [Vitamin C, ascorbic acid]
overall SC architecture (in vitro Cultures [2]; skin equivalent cultures, electron microscopy): improved
Lipid Composition (in vitro Cultures [2]): Major
Lipid Composition (in vitro Cultures [2]; listed as vitamin C): improved

Vitamin E
Lipid Composition (in vitro Cultures [2]): No effect
